ChEMBL document CHEMBL1137947, “Novel nevirapine-like inhibitors with improved activity against NNRTI-resistant HIV: 8-heteroarylthiomethyldipyridodiazepinone derivatives” (Bioorg Med Chem Lett, 2004)

Assays:
[1] = biological target: Human immunodeficiency virus type 1 reverse transcriptase (Human immunodeficiency virus 1, UniProt Q72547); assay: Inhibitory activity against wild type reverse transcriptase (WT RT) of HIV-1
[2] = test system: Human immunodeficiency virus 1; assay: Inhibitory activity against HIV-1 mutant strain K103N/Y181C; format: functional, organism-based
[3] = test system: Human immunodeficiency virus 1; assay: Effective concentration against wild-type HIV-1; format: functional, organism-based
[4] = test system: Human immunodeficiency virus 1; assay: Effective concentration against mutant K103N/Y181C of HIV-1; format: functional, organism-based
[5] = biological target: T1, Cytochrome P450 2C9 (Homo sapiens, UniProt P11712); assay: Inhibition of cytochrome P450 2C9; format: ADME
[6] = Half-life consistent with the observed metabolic steady state in rats; format: ADME, organism-based; conditions: rat, in vivo
[7] = biological target: Cytochrome P450 2C19 (Homo sapiens, UniProt P33261); assay: Inhibition of cytochrome P450 2C19; format: ADME
[8] = biological target: T2, Cytochrome P450 1A2 (Homo sapiens, UniProt P05177); assay: Inhibition of cytochrome P450 1A2; format: ADME
T2 sequence (P05177 whole entry): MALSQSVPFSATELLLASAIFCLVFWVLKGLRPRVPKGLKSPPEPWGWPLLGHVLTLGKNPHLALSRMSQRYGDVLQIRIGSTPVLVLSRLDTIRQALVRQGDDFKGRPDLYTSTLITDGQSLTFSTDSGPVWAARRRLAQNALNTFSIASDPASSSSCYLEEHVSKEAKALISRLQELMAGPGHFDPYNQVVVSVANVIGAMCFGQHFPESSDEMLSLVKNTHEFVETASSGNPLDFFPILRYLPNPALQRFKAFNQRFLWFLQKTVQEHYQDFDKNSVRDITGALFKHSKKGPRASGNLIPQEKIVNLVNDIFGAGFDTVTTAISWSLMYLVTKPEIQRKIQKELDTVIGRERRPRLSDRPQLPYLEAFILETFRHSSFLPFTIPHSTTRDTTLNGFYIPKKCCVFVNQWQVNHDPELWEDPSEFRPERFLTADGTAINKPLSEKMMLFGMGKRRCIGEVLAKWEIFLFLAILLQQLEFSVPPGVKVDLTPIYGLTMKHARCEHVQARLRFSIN

[9] = Bioavailability in rats was evaluated; format: ADME, organism-based; conditions: rat, in vivo; read-out: Bioavailabiility
[10] = Half-life for oxidative metabolic stability was determined using rat liver microsomes; format: ADME, Microsome
[11] = Plasma clearance in rats; format: ADME, organism-based; conditions: rat
[12] = biological target: T3, Cytochrome P450 3A4 (Homo sapiens, UniProt P08684); assay: Inhibition of CYP450 (Cytochrome P450) 3A4 with fluorogenic substrate BFC; format: ADME
[13] = Volume of distribution at steady state was evaluated in rats; format: ADME, organism-based; conditions: rat, in vivo; read-out: Vss
[14] = biological target: T4, Cytochrome P450 2D6 (Homo sapiens, UniProt P10635); assay: Inhibition of cytochrome P450 2D6; format: ADME
[15] = species: Homo sapiens; assay: Half-life for oxidative metabolic stability was determined using male human; conditions: in vitro
[16] = biological target: T3, Cytochrome P450 3A4; assay: Inhibition of CYP450 (Cytochrome P450) 3A4 with fluorogenic substrate BQ; format: ADME
[17] = Maximum concentration was evaluated in rats; format: ADME, organism-based; conditions: rat, in vivo
[18] = biological target: T4, Cytochrome P450 2D6; assay: Inhibition of CYP450 (Cytochrome P450) 2D6; format: ADME
[19] = biological target: T2, Cytochrome P450 1A2; assay: Inhibition of CYP450 (Cytochrome P450) 1A2; format: ADME
[20] = biological target: T1, Cytochrome P450 2C9; assay: Inhibition of CYP450 (Cytochrome P450) 2C9; format: ADME

T1 sequence (P11712 whole entry): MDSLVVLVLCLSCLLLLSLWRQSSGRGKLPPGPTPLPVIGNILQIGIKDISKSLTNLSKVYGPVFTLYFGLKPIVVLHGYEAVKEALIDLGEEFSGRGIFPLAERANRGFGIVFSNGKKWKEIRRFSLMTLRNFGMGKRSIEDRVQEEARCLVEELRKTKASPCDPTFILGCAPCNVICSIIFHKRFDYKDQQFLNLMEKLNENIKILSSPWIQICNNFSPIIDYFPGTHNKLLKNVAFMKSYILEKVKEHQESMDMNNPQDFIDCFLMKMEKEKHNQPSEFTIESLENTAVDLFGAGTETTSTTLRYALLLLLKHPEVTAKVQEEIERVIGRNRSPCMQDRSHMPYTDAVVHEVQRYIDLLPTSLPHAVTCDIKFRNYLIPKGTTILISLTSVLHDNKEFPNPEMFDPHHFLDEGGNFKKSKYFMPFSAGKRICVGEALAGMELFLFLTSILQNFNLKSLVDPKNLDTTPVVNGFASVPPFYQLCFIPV
T3 sequence (P08684 whole entry): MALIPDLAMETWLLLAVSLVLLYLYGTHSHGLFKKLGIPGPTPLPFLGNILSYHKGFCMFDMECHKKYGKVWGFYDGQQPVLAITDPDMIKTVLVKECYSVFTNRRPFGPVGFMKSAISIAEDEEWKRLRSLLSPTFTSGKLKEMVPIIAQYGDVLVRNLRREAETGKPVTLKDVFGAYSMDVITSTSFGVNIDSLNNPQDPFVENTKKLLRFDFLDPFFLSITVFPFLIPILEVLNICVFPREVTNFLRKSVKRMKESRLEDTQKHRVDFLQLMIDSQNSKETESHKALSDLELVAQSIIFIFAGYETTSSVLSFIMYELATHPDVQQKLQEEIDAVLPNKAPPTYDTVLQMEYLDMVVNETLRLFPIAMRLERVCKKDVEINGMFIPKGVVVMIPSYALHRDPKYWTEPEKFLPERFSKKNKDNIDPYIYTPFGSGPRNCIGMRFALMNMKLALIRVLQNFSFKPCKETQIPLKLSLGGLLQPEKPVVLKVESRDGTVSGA
T4 sequence (P10635 whole entry): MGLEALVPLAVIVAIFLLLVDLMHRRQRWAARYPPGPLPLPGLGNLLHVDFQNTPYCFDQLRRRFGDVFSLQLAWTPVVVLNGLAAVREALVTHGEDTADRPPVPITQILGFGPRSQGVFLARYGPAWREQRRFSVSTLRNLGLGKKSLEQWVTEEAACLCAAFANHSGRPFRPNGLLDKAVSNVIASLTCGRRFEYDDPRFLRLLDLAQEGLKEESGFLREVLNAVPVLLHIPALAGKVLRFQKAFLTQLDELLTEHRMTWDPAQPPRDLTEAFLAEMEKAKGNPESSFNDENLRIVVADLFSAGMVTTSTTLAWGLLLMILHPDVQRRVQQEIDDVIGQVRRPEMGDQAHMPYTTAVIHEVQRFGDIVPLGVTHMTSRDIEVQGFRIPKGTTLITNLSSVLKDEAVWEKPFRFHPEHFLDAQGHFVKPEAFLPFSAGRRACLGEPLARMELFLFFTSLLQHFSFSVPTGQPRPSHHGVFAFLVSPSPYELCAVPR
Cytochrome P450 2C19, sequence (P33261 whole entry): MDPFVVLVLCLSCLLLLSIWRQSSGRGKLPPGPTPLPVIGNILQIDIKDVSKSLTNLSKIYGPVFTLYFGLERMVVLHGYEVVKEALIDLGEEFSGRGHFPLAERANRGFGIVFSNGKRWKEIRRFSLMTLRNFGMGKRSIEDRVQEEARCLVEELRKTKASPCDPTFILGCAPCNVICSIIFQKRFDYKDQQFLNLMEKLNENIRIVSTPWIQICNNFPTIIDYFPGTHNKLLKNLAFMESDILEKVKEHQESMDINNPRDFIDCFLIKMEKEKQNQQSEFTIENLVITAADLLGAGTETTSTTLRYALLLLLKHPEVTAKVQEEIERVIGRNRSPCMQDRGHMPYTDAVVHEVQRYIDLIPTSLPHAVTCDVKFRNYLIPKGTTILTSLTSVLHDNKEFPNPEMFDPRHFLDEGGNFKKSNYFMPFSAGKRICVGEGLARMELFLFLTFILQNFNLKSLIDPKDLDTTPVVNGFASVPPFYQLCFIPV

SMILES | IC50 [1] [nM] | IC50 [2] [nM] | EC50 [3] [nM] | EC50 [4] [nM] | also measured
CCN1c2ncc(CSc3cncnc3)cc2C(=O)Nc2c(C)cc(Cl)nc21 | 26 | 5000 | 7.8 | – | –
CCN1c2ncc(CSc3ccncc3C)cc2C(=O)Nc2c(C)cc(Cl)nc21 | 11 | 1640 | 3.1 | – | –
CCN1c2ncc(CSc3ccncc3)cc2C(=O)Nc2c(C)cc(Cl)nc21 | 2.2 | 80 | 0.48 | – | –
CCN1c2ncc(CSc3ccncc3)cc2C(=O)N(C)c2ccc(Cl)nc21 | 3 | 26 | 0.31 | – | –
Cc1cc(SCc2cnc3c(c2)C(=O)Nc2c(C)cc(Cl)nc2N3C2CC2)cc(C)n1 | 12 | 280 | 2.2 | 104 | –
CCN1c2ncc(CSc3cc(C)nc(C)c3)cc2C(=O)Nc2c(C)cc(Cl)nc21 | 7 | 60 | 1.2 | 14 | IC50 [5]: 2600 nM; half-life [6]: 90 min; IC50 [7]: 4200 nM; IC50 [8]: 23000 nM; bioavailability [9]: 76%; half-life [10]: 4 min; clearance [11]: 57 mL/min/kg; IC50 [12]: 2300 nM; Vd [13]: 4.68 L/kg; IC50 [14]: 27000 nM; half-life [15]: 7 min; IC50 [16]: 8100 nM; Cmax [17]: 800 nM
CCN1c2ncc(CSc3nc(C)cc(C)n3)cc2C(=O)Nc2c(C)cc(Cl)nc21 | 6 | 320 | 1.5 | – | –
CCN1c2ncc(CSc3ccnc(C)c3)cc2C(=O)Nc2c(C)cc(Cl)nc21 | 27 | 310 | 3.4 | – | –
CCN1c2ncc(CSc3nc4ccccc4o3)cc2C(=O)Nc2c(C)cc(Cl)nc21 | 8 | 230 | 2.7 | – | –
CCN1c2ncc(CSc3cc(C)nc(C)c3)cc2C(=O)Nc2c(C)ccnc21 | 4.2 | 170 | 0.46 | 12 | IC50 [18]: > 30000 nM; IC50 [19]: > 30000 nM; IC50 [7]: 26000 nM; half-life [10]: 9 min; IC50 [12]: 1600 nM; IC50 [20]: 7400 nM; half-life [15]: 9 min; IC50 [16]: 10000 nM
CCN1c2ncc(CSc3cc(C)nc(C)c3)cc2C(=O)Nc2c(C)cc(F)nc21 | 6.9 | 120 | 1 | 21 | IC50 [5]: 4500 nM; IC50 [18]: 27000 nM; IC50 [7]: 5400 nM; IC50 [8]: 26000 nM; half-life [10]: 5 min; IC50 [12]: 2500 nM; half-life [15]: 5 min; IC50 [16]: 10000 nM
